The values that follow come from PMC10769483, “Death by a thousand cuts through kinase inhibitor combinations that maximize selectivity and enable rational multitargeting” (eLife, 2023).

The test system of assay [1] is ABL1(F317L), FYN, and LYN. The experiment in a line: MMS multiple-target analysis, Davis et al. dataset.

Structures are written as SMILES.

Take `Cc1ccc(F)c(NC(=O)Nc2ccc(-c3cccc4[nH]nc(N)c34)cc2)c1` [ABT-869, Linifanib]: the “concentration of component in Mixture B required to inhibit all on-targets by at least 90%” value in the assay on CDC2L5 and TRKC is given as 226 nM.

`CSc1cccc(Nc2ncc3cc(-c4c(Cl)cccc4Cl)c(=O)n(C)c3n2)c1` [PD-173955]: in assay [1], the “concentration of component in Mixture A required to inhibit all on-targets by at least 90%” value came out at 4.69 nM.

On to `Cc1ccc(NC(=O)c2ccc(CN3CCN(C)CC3)cc2)cc1Nc1nc(-c2cccnc2)cs1` [masatinib, Masitinib], for which, in assay [1], the “concentration of component in Mixture A required to inhibit all on-targets by at least 90%” value turned out to be 661 nM.

Regarding `COc1cc2c(Oc3ccc(NC(=O)C4(C(=O)Nc5ccc(F)cc5)CC4)cc3F)ccnc2cc1OCCCN1CCOCC1` [EXEL-2880/GSK-1363089, Foretinib], the “concentration of component in Mixture B required to inhibit all on-targets by at least 90%” value in the assay on CDC2L5 and TRKC was determined as 40.0 nM.
